# Source: US10618937B2, “Method of treating Alzheimer's disease” (INDUSTRY-ACADEMIC COOPERATION FOUNDATION GYEONGSANG …, priority 2016, dated 2020)
# Assays:
# APP/PS1 model mice [1] = test: Morris water maze test in APP/PS1 model mice; type: in vivo; conditions: APP/PS1 model mice treated, compared to APP/PS1 model mice
# Method: (§1) Male C57BL/6J wild type mice and double transgenic B6.Cg-Tg (APPswe, PSENdE9) 85Dbo Mmjax (APP/PS1) AD-model mice were obtained from Jackson Laboratories (Bar Harbor, Me., USA). The brains of the double transfected mice express Swedish mutation-containing chimeric mouse-human amyloid precursor protein (Mo/HuAPP695swe) and mutant human presenilin 1 protein (PS1-dE9). The mice were fed with an unlimited supply of food and water at an animal breeding ground of a university at a temperature of 23° C., at the relative humidity of 60±10% and in the black and light cycle of 12 h/12 h. […]
# The Morris Underwater Maze Test System was constructed as a circular water tank with a diameter of 100 cm and a height of 40 cm containing 15.5 cm depth of water (temperature of 23±1° C.) which was opaque with white ink added. […] The delay time for escaping from the water maze (the time to find the hidden escape platform) was calculated for each trial. […] For the probe experiment, the platform was removed, each mouse was allowed to freely swim for 60 seconds, the amount of time the mouse spent in the target quadrant was measured, and the number of platform positions the mouse passed by (where the platform was located during the hidden platform training). […] All data were recorded by using video-tracking software (SMART, Panlab Harward Apparatus, Bioscience Company, Holliston, Mass., USA).
# APP/PS1 model mice [2] = test: Y-maze test; type: in vivo; conditions: 45 days after IP administration
# Method: as §1, with “h. When the mice reached 10 months of age, they were transferred to the injection and behavior observation room for 1 week for purification. The maintenance and treatment for mice were performed according to the guidelines of the Animal Ethics Committee (IACUC) issued by Department of Biology, Division of Applied Life Science of Gyeongsang National University in Korea. Experiments according to the present disclosure were conducted according to the guidelines approved by the guidelines of the Animal Ethics Committee (IACUC) issued by Department of Biology, Division of Applied Life Science of Gyeongsang National University in Korea (approval ID: 125).” for “h.”
# Alteration behavior ratio (%) was calculated as [set of overlapping triplets (consecutive entry into 3 different arms)/total entry−2]×100. […]
# [3] = tested on: APP-transfected HT-22 cells; test: Western blot analysis of proteins isolated from APP-transfected HT-22 cells; type: cell-based; conditions: 1, 5, 10 or 20 μM
# Method: SH-SY5Y cells and HT-22 cells were inoculated into a culture flask containing the medium, and cultured until reaching the confluency of 70% to 75%. The pCAX vector with the APPswe/ind gene was transfected for 48 hours by using Lipofectamine 3000 (Life technologies) according to the manufacturers instructions.
# Protein concentrations were measured by using a BIORAD protein assay kit (BIORAD LABORATORIES, CA, USA). Equal amounts of protein (15 to 25 μg) were electrophoresed under the same experimental conditions using 4 to 12% BLOT™ minigel and MES SDS electrophoresis buffer (running buffer) 1×(NOVEX, LIFE TECHNOLOGIES, Kiryat Shmona, Israel), and a broad range prestained protein marker (GANGNAM STAIN™, Intron Biotechnology) was used as the control for the molecular size. To reduce nonspecific binding, the membranes used were blocked with 5% (w/v) skim milk and reacted with a primary antibody (a 1:1000 dilution) overnight at 4° C. After an appropriate reaction with a horseradish peroxidase (HRP)-binding secondary antibody, proteins were detected by using an ECL detection reagent (AMERSHAM PHARMECIA BIOTECH, Uppsala, Sweden) according to the manufacturer's instructions. The X-ray film was scanned and the optical density of the band was analyzed using a densitometry using a computer-based Sigma Gel program, version 1.0 (SPSS, Chicago, Ill., USA).
# For use as the primary antibody, anti-amyloid β (Aβ), anti-APP, anti-AdipoR1 (Adiponectin receptor 1), anti-phospho-AMPK, anti-SNAP-25 (Synaptosomal-Associated Protein 25), anti-SAP-102, anti-Syanpatophysin, phospho-Tau (Ser 413), anti-p-mTOR, anti-p-ULK1, and anti-β-actin were used.
substance,measurement,setting,value
RGPCG (adiponectin receptor-activating peptide) [5AA1],time for staying where the platform was located (probe test),APP/PS1 model mice [1],increased
same,spontaneous alteration,APP/PS1 model mice [2],restored
same,expression of AdipoR1 protein,[3],expressed more
same,expression of p-AMPK protein,[3],expressed more
same,expression level of amyloid β (Aβ),[3]; normalized with β-actin,significantly reduced
same,expression level of β-amyloid precursor protein (APP),[3]; normalized with β-actin,significantly reduced
